Assay results reported in PMC12400753 (Respiratory Research, 2025).
Read-outs that look alike come from different tables or passages of the source.

Tests used:
[1] = test system: sandwich-cultured human hepatocytes; experiment: Cholestatic drug-induced liver injury (c-DILI) assay; type: cell-based; settings: 30 µM, 24 h, in the presence or absence of a toxic concentration of bile acids
Protocol: This study was conducted at BioIVT (Durham, […]). Sandwich-cultured human hepatocytes (SCHH) were prepared on BioCoat 96-well Cell Culture Plate from Corning (Cat # 354407) using Transporter Certified™ cryopreserved hepatocytes from BioIVT (Cat # M00995-TCERT) and maintained in freshly prepared QualGro™ Hepatocyte Culture Medium. […] Following 24 h of exposure, the culture plates were harvested for adenosine triphosphate (ATP) and lactate dehydrogenase (LDH) analysis. Cellular ATP content was determined using the CellTiter-Glo® Assay Kit and LDH leakage into the culture media was determined using the CytoTox-ONE® Assay Kit, both obtained from Promega, per manufacturer’s instructions.

[2] = test system: human precision cut lung slices from donors with pulmonary fibrosis; experiment: Fibrotic marker mRNA (qPCR) in cryopreserved PCLS from donors with pulmonary fibrosis; type: cell-based; settings: PIPE-791, 6 days, 6 donors
Description: Slices were snap frozen and processed for transcript analysis by quantitative PCR. […] Concurrently, we evaluated two well-established, clinical stage antifibrotic mechanisms in this setting: an αvβ1/6 inhibitor (bexotegrast, PLN-74809) and a PDE4B inhibitor (nerandomilast, BI 1015550).
(§1) Precision cut lung slices were obtained from Anabios (San Diego, CA) and collected in accordance with their ethics policy (https://anabios.com/ethics-statement/). Donor demographics are available in Additional File 1. Slices were thawed as per vendor instructions. Briefly, PCLS were thawed at 37 °C then transferred to media consisting of DMEM/F12, Antibiotic-Antimytotic, and Penicillin-Streptomycin. PCLS were gently rinsed then transferred to a larger dish. A small tissue sample was excised with a scalpel for immunohistochemistry and qPCR characterization. […] Final concentration of DMSO was 0.1%. Media and compound were replaced every two days for a total of 6 days. At the end of the experiment, slices were collected and snap frozen. Quantitative PCR: RNA was extracted using RNEasy columns. RNA was reverse transcribed using qScript XLT per manufacturer’s instructions. Genes of interest were assessed by qPCR using Perfecta SYBR Green on a StepOne Plus Thermocycler (ABI). Parameters were as follows: 95 °C 30 s, then 45 cycles of 95 °C for 5 s and 60 °C for 30 s.

[3] = test system: normal, non-fibrotic human PCLS; experiment: Fibrotic marker mRNA (qPCR) in normal PCLS; type: cell-based; settings: n=5 donors
Protocol: as §1

[4] = Plasma protein binding (fraction unbound); type: in vitro ADME; settings: rat plasma
LPAR1 = molecular target: T1, LPAR1 (Mus musculus, UniProt P61793); experiment: In vivo lung receptor occupancy with [3H]-PIPE-497; settings: for EC50: read-out: lung receptor occupancy EC50 (plasma concentration)
T1 construct: from tissue; host or cells: lung of female C57BL6/N mice, dosed in vivo
T1 sequence (P61793 whole entry): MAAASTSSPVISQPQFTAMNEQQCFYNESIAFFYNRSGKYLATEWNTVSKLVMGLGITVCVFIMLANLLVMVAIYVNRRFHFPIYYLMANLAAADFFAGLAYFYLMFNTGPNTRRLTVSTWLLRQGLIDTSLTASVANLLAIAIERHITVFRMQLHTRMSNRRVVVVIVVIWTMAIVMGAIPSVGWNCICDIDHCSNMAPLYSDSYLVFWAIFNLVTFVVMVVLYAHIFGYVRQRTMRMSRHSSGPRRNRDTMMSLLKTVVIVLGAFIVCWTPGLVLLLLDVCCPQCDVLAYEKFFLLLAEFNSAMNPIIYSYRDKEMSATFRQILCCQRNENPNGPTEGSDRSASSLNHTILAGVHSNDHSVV
Protocol: [^3H]-PIPE-497 was diluted to 9.8 µCi/mL in saline and administered via IV injection to the lateral tail vein at a dose volume of 5 mL/kg. Five minutes following radioligand administration, mice were euthanized by decapitation, trunk blood collected into K3EDTA tubes and stored on wet ice, each lung rapidly dissected, weighed and placed into a 5 mL polypropylene tube. Tissues were diluted with a 10x volume of ice-cold binding buffer (50 mM HEPES, 100 mM NaCl2, 2 mM EDTA). Lungs were then homogenized (25,000 rpm, 7 s). 300 µL of homogenate was filtered over Whatman GF/B filters (GE Life Sciences, Marlborough, MA) which had been pre-wetted with 0.5% polyethyleneimine prior to loading onto the Hoefer vacuum manifold. Filters were washed once by applying 3 mL ice-cold wash buffer (50 mM Tris, 154 mM NaCl, 0.05% Tween 20) to the manifold for a total of 2 washes. […] Washed filters were removed from the manifold and air dried. Following completion of filtration of all samples, uncapped scintillation vials were placed into an oven (~ 40–50 °C) for ~ 30 min to ensure complete drying. Five (5) mL Ultima Gold F scintillation fluid was added to each tube. Tubes were capped, gently agitated, and dark equilibrated for 30 min then read on a Beckman LS6500 liquid scintillation counter for tritium disntegrations per minute measurements. After all samples were collected, dissected, and filtered, the previously collected blood in K3EDTA tubes was centrifuged (1450 x g, 10 min, 4 °C) to separate plasma.

[5] = test system: LPA-induced mast cell histamine release; experiment: In vivo LPA-induced histamine release; set-up: species or system mouse
Protocol: Female CD-1 mice (Envigo) were allowed to acclimate for ~ 1 week. Animals were subject to a 12 h light – 12 h dark cycle. Mice were multi-housed in Innorack IVC mouse racks (Innovive, San Diego, CA) with access to water and standard rodent chow ad libitum. […] Three hours or 24 h after a single dose or after the last of 4 repeated administrations, 150 µL FAF-PBS/BSA (Control) or LPA (300 µg in 150 µL) was administered IV via the lateral tail vein and mice were immediately placed into an isoflurane chamber. Two minutes later, mice were euthanized by decapitation and trunk blood collected into K3EDTA tubes and stored on wet ice until processing to plasma (1450 x g, 10 min, 4 °C). Plasma was aliquoted into two 96-well polypropylene plates and transferred to −80 °C for storage until analysis for histamine by EIA.

[6] = test system: primary human alveolar macrophages; experiment: LPS-induced IL-1β release; type: cell-based
Protocol: Human macrophages were cultured in Human Alveolar Macrophage Media per manufacturer’s instructions. […] Cells were then co-stimulated with 500 ng/mL LPS for 4 h. Plates were spun down and supernatant collected for analysis using a human IL-1β ELISA kit per manufacturer’s directions.

[7] = once per day for 4 days (steady state), 3 h after last dose

COc1ccc(NC(=O)N(c2ccccc2C(C)C)C2CCC(C(=O)O)CC2)c(OC(F)F)n1 (stereo not drawn) [PIPE-791]
ATP content (cell viability) [1]: nor a decrease in ATP content
lactate dehydrogenase leakage (cell death) [1]: neither an appreciable increase in lactate dehydrogenase
COL1A1 mRNA expression vs vehicle [2]: significantly less expression
COL3A1 mRNA expression vs vehicle [2]: significantly less expression
LPAR1 mRNA levels vs vehicle [2]: not significantly affected
SERPINE1 mRNA expression vs vehicle [2]: significantly less expression
TIMP1 mRNA expression vs vehicle [2]: significantly less expression
expression of fibrotic marker transcripts (COL1A1, COL3A1, SERPINE1, TIMP1, LPAR1) [3]: did not alter the expression of any of the fibrotic marker transcripts tested
plasma fraction unbound [4]: 0.057
increase in potency when dosed 3 versus 24 h prior to radioligand (LPAR1; in vivo receptor occupancy): 20 fold
lung receptor occupancy ED50 (LPAR1; [7]): 0.1 mg/kg
EC50 (LPAR1; [7]): 0.018 µM
EC90 (LPAR1; once per day for 4 days (steady state), read-out: lung receptor occupancy EC90 (total plasma concentration)): 0.05 µM
lung receptor occupancy ED50 (LPAR1; single oral dose 3 h prior to radioligand): 0.5 mg/kg
lung receptor occupancy ED50 (LPAR1; single oral dose 24 h prior to radioligand): 0.09 mg/kg
EC50 (LPAR1; single oral dose, 3 h): 0.079 µM
radiotracer displacement (LPAR1 receptor occupancy) in lung (LPAR1; single oral dose, 3 h post dose): Significant radiotracer displacement (LPAR1 receptor occupancy) was observed at 3 mg/kg
EC50 (LPAR1; single oral dose, 24 h): 0.004 µM
radiotracer displacement (LPAR1 receptor occupancy) in lung (LPAR1; single oral dose, 24 h post dose): significant occupancy was observed at both 0.3 and 3 mg/kg
blockade of LPA-induced histamine release ([5]; oral, 4 consecutive days (steady state), LPA 3 or 24 h after final dose): significant efficacy at 0.3 and 3 mg/kg was observed at both timepoints
blockade of LPA-induced histamine release ([5]; single oral dose 0.3 mg/kg, LPA challenge 3 or 24 h later): significance was observed at 24 h but not at 3 h
blockade of LPA-induced histamine release ([5]; single oral dose 3 mg/kg, LPA challenge 3 or 24 h later): significant blockade of histamine release
LPS-induced IL-1β in culture media ([6]; 500 ng/mL LPS 4 h, LPS alone 4.3-fold increase): inhibited to baseline levels
IL-1β in culture media, compound alone ([6]; no LPS): No increase was observed
